Laboratory results from patent US20080269200A1, “Indole Derivatives and Use Thereof as Kinase Inhibitors in Particular Ikk2 Inhibitors” (SmithKline Beecham Corporation, priority 2004, published 2008).

Target: T1, Recombinant human IKK2 (residues 1-737) (Homo sapiens, UniProt O14920)
T1 construct: Recombinant human IKK2 (residues 1-737) was expressed in baculovirus as a C-terminal GST-tagged fusion protein; GST (C); made in house
T1 sequence (O14920 1-737): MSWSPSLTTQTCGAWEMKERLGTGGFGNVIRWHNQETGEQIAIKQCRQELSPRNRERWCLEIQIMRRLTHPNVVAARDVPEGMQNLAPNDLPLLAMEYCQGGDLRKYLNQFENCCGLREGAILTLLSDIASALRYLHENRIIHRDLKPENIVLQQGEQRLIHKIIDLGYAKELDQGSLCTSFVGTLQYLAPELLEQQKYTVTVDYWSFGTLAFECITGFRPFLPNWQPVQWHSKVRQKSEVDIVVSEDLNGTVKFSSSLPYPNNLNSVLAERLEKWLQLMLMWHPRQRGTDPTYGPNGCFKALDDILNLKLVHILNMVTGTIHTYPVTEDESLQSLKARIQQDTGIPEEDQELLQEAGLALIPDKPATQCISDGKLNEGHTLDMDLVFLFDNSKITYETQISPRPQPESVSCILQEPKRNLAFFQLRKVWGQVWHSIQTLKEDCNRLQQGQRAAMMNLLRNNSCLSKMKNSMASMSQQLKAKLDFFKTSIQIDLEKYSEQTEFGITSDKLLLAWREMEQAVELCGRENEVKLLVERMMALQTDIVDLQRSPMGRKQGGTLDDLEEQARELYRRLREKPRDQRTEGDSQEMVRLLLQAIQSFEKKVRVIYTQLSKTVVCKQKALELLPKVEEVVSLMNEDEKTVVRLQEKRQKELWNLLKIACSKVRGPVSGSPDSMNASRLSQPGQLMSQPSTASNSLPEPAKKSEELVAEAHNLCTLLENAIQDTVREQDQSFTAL
Experiment: IKK2 Assay (TR-FRET)
Type: biochemical
Details: IKK2 5 nM, GST-IκBα substrate 25 nM, ATP 1 μM, 30 minutes at room temperature
Method: Recombinant human IKK2 (residues 1-737) was expressed in baculovirus as a C-terminal GST-tagged fusion protein, and its activity was assessed using a time-resolved fluorescence resonance energy transfer (TR-FRET) assay. Briefly, IKK2 (5 nM final) diluted in assay buffer (50 mM HEPES, 10 mM MgCl2, 1 mM CHAPS pH 7.4 with 1 mM DTT and 0.01% w/v BSA) was added to wells containing various concentrations of compound or DMSO vehicle (3% final). The reaction was initiated by the addition of GST-IκBα substrate (25 nM final)/ATP (1 μM final), in a total volume of 30 μl. The reaction was incubated for 30 minutes at room temperature, then terminated by the addition of 15 μl of 50 mM EDTA. Detection reagent (15 μl) in buffer (100 mM HEPES pH 7.4, 150 mM NaCl and 0.1% w/v BSA) containing antiphosphoserine-IκBα-32/36 monoclonal antibody 12C2 (Cell Signalling Technology, Beverly Mass., USA) labelled with W-1024 europium chelate (Wallac O Y, Turku, Finland), and an APC-labelled anti-GST antibody (Prozyme, San Leandro, Calif., USA) was added and the reaction was further incubated for 60 minutes at room temperature. The degree of phosphorylation of GST-IκBα was measured using a Packard Discovery plate reader (Perkin-Elmer Life Sciences, Pangboume, UK) as a ratio of specific 665 nm energy transfer signal to reference europium 620 nm signal.

Row | Structure (SMILES) | IC50
1 | NC(=O)c1cc(-c2ccc(Cl)cc2)cc2cc[nH]c12 [Example 7, 5-(4-chlorophenyl)-1H-indole-7-carboxamide] | < 15.8 µM
2 | NC(=O)c1cc(Br)cc2cc[nH]c12 [Intermediate 7, 5-bromo-1H-indole-7-carboxamide] | < 15.8 µM
3 | NC(=O)c1cc(Br)cc2c(C3CCNCC3)c[nH]c12 [Intermediate 30, 5-bromo-3-(4-piperidinyl)-1H-indole-7-carboxamide] | < 15.8 µM
